# Test system: MV-4-11 cells
# Assay: Gene expression microarray analysis (Affymetrix PrimeView) and GSEA
# Assay type: cell-based, human
# Parameters: RFU PODN (11730768_x_at) / Fold change /veh PODN (11730768_x_at) / RFU LINC00158 (11744669_a_at) / Fold change /veh LINC00158 (11744669_a_at) / RFU DUSP10 (11751237_a_at) / Fold change /veh DUSP10 (11751237_a_at) / RFU ID3 (11757404_x_at) / Fold change /veh ID3 (11757404_x_at) / RFU PLEKHG5 (11737974_s_at) / Fold change /veh PLEKHG5 (11737974_s_at) / RFU LRRC4B (11730491_at) / Fold change /veh LRRC4B (11730491_at) / RFU GIMAP4 (11747438_a_at) / Fold change /veh GIMAP4 (11747438_a_at) / RFU KRT8 (11758183_x_at) / Fold change /veh KRT8 (11758183_x_at) / RFU CNN1 (11734310_a_at) / Fold change /veh CNN1 (11734310_a_at) / RFU VPS37D (11726825_at) / Fold change /veh VPS37D (11726825_at) / RFU C10orf10 (11716522_x_at) / Fold change /veh C10orf10 (11716522_x_at) / RFU KIR2DL2 /// KIR2DL4 /// KIR2DL5A /// KIR2DL5B /// KIR2DS1 /// KIR2DS2 /// KIR2DS3 /// KIR2DS4 /// KIR3DL3 /// KIR3DL3 /// KIR3DS1 (11738374_at) / Fold change /veh KIR2DL2 /// KIR2DL4 /// KIR2DL5A /// KIR2DL5B /// KIR2DS1 /// KIR2DS2 /// KIR2DS3 /// KIR2DS4 /// KIR3DL3 /// KIR3DL3 /// KIR3DS1 (11738374_at) / RFU C1QL1 (11718748_at) / Fold change /veh C1QL1 (11718748_at) / RFU TMPRSS4 (11747572_a_at) / Fold change /veh TMPRSS4 (11747572_a_at) / RFU HAMP (11756126_x_at) / Fold change /veh HAMP (11756126_x_at) / RFU RNFT2 (11725882_a_at) / Fold change /veh RNFT2 (11725882_a_at) / RFU NR4A2 (11747474_a_at) / Fold change /veh NR4A2 (11747474_a_at) / RFU ABCC12 (11746883_a_at) / Fold change /veh ABCC12 (11746883_a_at) / RFU TMEM136 (11760407_x_at) / Fold change /veh TMEM136 (11760407_x_at) / RFU CLDN22 /// WWC2 (11732394_at) / Fold change /veh CLDN22 /// WWC2 (11732394_at) / RFU HLA-DPB1 (11760878_x_at) / Fold change /veh HLA-DPB1 (11760878_x_at) / RFU SPINT1 (11716480_a_at) / Fold change /veh SPINT1 (11716480_a_at) / RFU GAP43 (11754022_s_at) / Fold change /veh GAP43 (11754022_s_at) / RFU A4GNT (11735810_at) / Fold change /veh A4GNT (11735810_at) / RFU PRB3 (11715151_x_at) / Fold change /veh PRB3 (11715151_x_at) / RFU TUBB4B (11761932_at) / Fold change /veh TUBB4B (11761932_at) / RFU CAPN14 (11732068_a_at) / Fold change /veh CAPN14 (11732068_a_at) / RFU TMCC2 (11721928_a_at) / Fold change /veh TMCC2 (11721928_a_at) / RFU IRGQ (11745062_a_at) / Fold change /veh IRGQ (11745062_a_at) / RFU FAM174B (11720279_a_at) / Fold change /veh FAM174B (11720279_a_at) / RFU TMPRSS4 (11748680_a_at) / Fold change /veh TMPRSS4 (11748680_a_at) / RFU FAM212B (11763350_a_at) / Fold change /veh FAM212B (11763350_a_at) / RFU PLEKHG5 (11743358_a_at) / Fold change /veh PLEKHG5 (11743358_a_at) / RFU ZSCAN30 (11745921_a_at) / Fold change /veh ZSCAN30 (11745921_a_at) / RFU CMKLR1 (11741424_a_at) / Fold change /veh CMKLR1 (11741424_a_at) / RFU LOC101060620 /// MAPK8IP1 (11723275_at) / Fold change /veh LOC101060620 /// MAPK8IP1 (11723275_at) / RFU SPTSSB (11747773_x_at) / Fold change /veh SPTSSB (11747773_x_at) / RFU PRSS12 (11739890_at) / Fold change /veh PRSS12 (11739890_at) / RFU BIN1 (11741810_x_at) / Fold change /veh BIN1 (11741810_x_at) / RFU WNT11 (11732464_a_at) / Fold change /veh WNT11 (11732464_a_at) / RFU C10orf10 (11716521_a_at) / Fold change /veh C10orf10 (11716521_a_at) / RFU C5orf56 (11738089_at) / Fold change /veh C5orf56 (11738089_at) / RFU CYB561 (11721691_x_at) / Fold change /veh CYB561 (11721691_x_at) / RFU ANKRD19P (11752326_a_at) / Fold change /veh ANKRD19P (11752326_a_at) / RFU OR2T12 /// OR2T33 /// OR2T8 (11738714_s_at) / Fold change /veh OR2T12 /// OR2T33 /// OR2T8 (11738714_s_at) / RFU VCAN (11748164_a_at) / Fold change /veh VCAN (11748164_a_at) / RFU JSRP1 (11732532_at) / Fold change /veh JSRP1 (11732532_at) / RFU KRTAP10-11 (11738290_x_at) / Fold change /veh KRTAP10-11 (11738290_x_at) / RFU MYO3A (11730013_a_at) / Fold change /veh MYO3A (11730013_a_at) / RFU EBF3 (11725865_a_at) / Fold change /veh EBF3 (11725865_a_at) / RFU CAMK2N1 (11719241_x_at) / Fold change /veh CAMK2N1 (11719241_x_at) / RFU C5orf56 (11738088_a_at) / Fold change /veh C5orf56 (11738088_a_at) / RFU OLFML3 (11715873_a_at) / Fold change /veh OLFML3 (11715873_a_at) / RFU LOC100653217 /// NTM (11731650_a_at) / Fold change /veh LOC100653217 /// NTM (11731650_a_at) / RFU MAPK11 (11762145_a_at) / Fold change /veh MAPK11 (11762145_a_at) / RFU FIZ1 (11724087_x_at) / Fold change /veh FIZ1 (11724087_x_at) / RFU OASL (11726364_x_at) / Fold change /veh OASL (11726364_x_at) / RFU SOX15 (11748057_x_at) / Fold change /veh SOX15 (11748057_x_at) / RFU CD79A (11719716_a_at) / Fold change /veh CD79A (11719716_a_at) / RFU HIST1H1D (11736915_at) / Fold change /veh HIST1H1D (11736915_at) / RFU CASKIN2 (11723855_a_at) / Fold change /veh CASKIN2 (11723855_a_at) / RFU LOC730098 (11760151_x_at) / Fold change /veh LOC730098 (11760151_x_at) / RFU OR4N2 (11742367_at) / Fold change /veh OR4N2 (11742367_at) / RFU PRRT2 (11749266_a_at) / Fold change /veh PRRT2 (11749266_a_at) / RFU SNX32 (11753110_a_at) / Fold change /veh SNX32 (11753110_a_at) / RFU CDHR5 (11726645_a_at) / Fold change /veh CDHR5 (11726645_a_at) / RFU RCAN1 (11760418_a_at) / Fold change /veh RCAN1 (11760418_a_at) / RFU FAM167A (11723789_a_at) / Fold change /veh FAM167A (11723789_a_at) / RFU FAM26E (11764081_at) / Fold change /veh FAM26E (11764081_at) / RFU ISYNA1 (11749810_s_at) / Fold change /veh ISYNA1 (11749810_s_at) / RFU ACY1 (11761880_at) / Fold change /veh ACY1 (11761880_at) / RFU 11764098_at / Fold change /veh 11764098_at / RFU SAMD14 (11745864_x_at) / Fold change /veh SAMD14 (11745864_x_at) / RFU NPB (11741838_a_at) / Fold change /veh NPB (11741838_a_at) / RFU TMPRSS6 (11731388_a_at) / Fold change /veh TMPRSS6 (11731388_a_at) / RFU KRTAP10-2 (11738614_at) / Fold change /veh KRTAP10-2 (11738614_at) / RFU ARHGAP8 /// PRR5-ARHGAP8 (11727945_x_at) / Fold change /veh ARHGAP8 /// PRR5-ARHGAP8 (11727945_x_at) / RFU KRTAP5-7 /// NADSYN1 (11734609_at) / Fold change /veh KRTAP5-7 /// NADSYN1 (11734609_at) / RFU RASL12 (11751679_a_at) / Fold change /veh RASL12 (11751679_a_at) / RFU CDKN2B (11736163_a_at) / Fold change /veh CDKN2B (11736163_a_at) / RFU PRF1 (11729649_at) / Fold change /veh PRF1 (11729649_at) / RFU, ZNF638 /// ZNF638-IT1 / Fold change vs veh, ZNF638 /// ZNF638-IT1 / RFU, PANK3 / Fold change vs veh, PANK3 / RFU, SH3YL1 / Fold change vs veh, SH3YL1 / RFU, ZEB2 / Fold change vs veh, ZEB2 / RFU, NRIP1 / Fold change vs veh, NRIP1 / RFU, PTTG1IP / Fold change vs veh, PTTG1IP / RFU, CAPN2 / Fold change vs veh, CAPN2 / RFU, MED14 / Fold change vs veh, MED14 / RFU, SNORA58 / Fold change vs veh, SNORA58 / RFU, C1orf63 / Fold change vs veh, C1orf63 / RFU, LRRFIP1 / Fold change vs veh, LRRFIP1 / RFU, NDUFAF7 / Fold change vs veh, NDUFAF7 / RFU, SLC12A2 / Fold change vs veh, SLC12A2 / RFU, IBTK / Fold change vs veh, IBTK / RFU, ESF1 / Fold change vs veh, ESF1 / Fold change vs veh, TMEM50B / RFU, TAOK1 / Fold change vs veh, TAOK1 / RFU, ACBD3 / Fold change vs veh, ACBD3 / RFU, TMA16 / Fold change vs veh, TMA16 / RFU, RWDD3 / Fold change vs veh, RWDD3 / RFU, BCAT1 / Fold change vs veh, BCAT1 / RFU, EDEM3 / Fold change vs veh, EDEM3 / RFU, TMEM33 / Fold change vs veh, TMEM33 / RFU, WDR75 / Fold change vs veh, WDR75 / RFU, AHCTF1 / Fold change vs veh, AHCTF1 / RFU, TFRC / Fold change vs veh, TFRC / RFU, ZDHHC17 / Fold change vs veh, ZDHHC17 / RFU, NOM1 / Fold change vs veh, NOM1 / RFU, ARL8B / Fold change vs veh, ARL8B / RFU, ZBTB11 / Fold change vs veh, ZBTB11 / RFU, TAMM41 / Fold change vs veh, TAMM41 / RFU, KIAA1704 /// LOC100996395 / Fold change vs veh, KIAA1704 /// LOC100996395 / RFU, ING1 / Fold change vs veh, ING1 / RFU, TRMT61B / Fold change vs veh, TRMT61B / RFU, FUBP3 / Fold change vs veh, FUBP3 / RFU, TP53 / Fold change vs veh, TP53 / RFU, TNKS2 / Fold change vs veh, TNKS2 / RFU, ZFP14 / Fold change vs veh, ZFP14 / RFU, ACTR2 / Fold change vs veh, ACTR2 / RFU, PPP3R1 / Fold change vs veh, PPP3R1 / RFU, PIK3R1 / Fold change vs veh, PIK3R1 / RFU, HNRNPA1 / Fold change vs veh, HNRNPA1 / RFU, RNF170 / Fold change vs veh, RNF170 / RFU, ZNF28 / Fold change vs veh, ZNF28 / RFU, RNGTT / Fold change vs veh, RNGTT / RFU, OGT / Fold change vs veh, OGT / RFU, BRD1 / Fold change vs veh, BRD1 / RFU, MARS / Fold change vs veh, MARS / RFU, ZNF655 / Fold change vs veh, ZNF655 / RFU, FAHD1 / Fold change vs veh, FAHD1 / RFU, BDP1 / Fold change vs veh, BDP1 / RFU, LRRCC1 / Fold change vs veh, LRRCC1 / RFU, ARID1A / Fold change vs veh, ARID1A / RFU, ZNF146 / Fold change vs veh, ZNF146 / RFU, ZNF330 / Fold change vs veh, ZNF330 / RFU, GPN3 / Fold change vs veh, GPN3 / RFU, C9orf123 / Fold change vs veh, C9orf123 / RFU, N4BP2L2 / Fold change vs veh, N4BP2L2 / RFU, ARFIP1 / Fold change vs veh, ARFIP1 / RFU, FAM179B / Fold change vs veh, FAM179B / RFU, BCL10 / Fold change vs veh, BCL10 / RFU, UHRF1BP1L / Fold change vs veh, UHRF1BP1L / RFU, BET1 / Fold change vs veh, BET1 / RFU, CNOT2 / Fold change vs veh, CNOT2 / RFU, ZNF268 / Fold change vs veh, ZNF268 / Fold change vs veh, ZNF507 / RFU, DGCR2 / Fold change vs veh, DGCR2 / RFU, WDSUB1 / Fold change vs veh, WDSUB1 / Fold change vs veh, HSP90B1 /// MIR3652 / RFU, ADSS / Fold change vs veh, ADSS / RFU, GK / Fold change vs veh, GK / RFU, ZNF148 / Fold change vs veh, ZNF148 / RFU, TAF9 / Fold change vs veh, TAF9 / RFU, SLC1A5 / Fold change vs veh, SLC1A5 / RFU, SLMO2 / Fold change vs veh, SLMO2 / RFU, ABCC4 / Fold change vs veh, ABCC4 / RFU, LOC101060439 /// RAP1B / Fold change vs veh, LOC101060439 /// RAP1B / RFU, RFX7 / Fold change vs veh, RFX7 / RFU, GTPBP10 / Fold change vs veh, GTPBP10 / RFU, CNEP1R1 / Fold change vs veh, CNEP1R1 / RFU, BIVM-ERCC5 /// ERCC5 / Fold change vs veh, BIVM-ERCC5 /// ERCC5 / RFU, ILF3 / Fold change vs veh, ILF3 / RFU 11762660_at / Fold change /veh 11762660_at / RFU VCAN (11757783_s_at) / Fold change /veh VCAN (11757783_s_at) / RFU DDX43 (11728927_at) / Fold change /veh DDX43 (11728927_at) / RFU KRT8 (11758188_x_at) / Fold change /veh KRT8 (11758188_x_at) / RFU NKD1 (11759106_at) / Fold change /veh NKD1 (11759106_at) / RFU SRD5A1 (11742802_a_at) / Fold change /veh SRD5A1 (11742802_a_at) / RFU TPSAB1 /// TPSB2 (11721975_s_at) / Fold change /veh TPSAB1 /// TPSB2 (11721975_s_at) / RFU GSTM3 (11746129_a_at) / Fold change /veh GSTM3 (11746129_a_at) / RFU IL23R (11737362_x_at) / Fold change /veh IL23R (11737362_x_at) / RFU TMEM51 (11727254_a_at) / Fold change /veh TMEM51 (11727254_a_at) / RFU PIWIL2 (11732686_x_at) / Fold change /veh PIWIL2 (11732686_x_at) / RFU ORM1 (11744905_x_at) / Fold change /veh ORM1 (11744905_x_at) / RFU CCDC152 (11743942_at) / Fold change /veh CCDC152 (11743942_at) / RFU ECM1 (11717891_a_at) / Fold change /veh ECM1 (11717891_a_at) / RFU IL23R (11748794_a_at) / Fold change /veh IL23R (11748794_a_at) / RFU TNFAIP8L3 (11732012_x_at) / Fold change /veh TNFAIP8L3 (11732012_x_at) / RFU MBOAT4 (11741988_at) / Fold change /veh MBOAT4 (11741988_at) / RFU 11764193_at / Fold change /veh 11764193_at / RFU TMEM53 (11763286_at) / Fold change /veh TMEM53 (11763286_at) / RFU MAGEB2 (11727129_at) / Fold change /veh MAGEB2 (11727129_at) / RFU TMEM200A (11744735_a_at) / Fold change /veh TMEM200A (11744735_a_at) / RFU CCDC152 (11751479_a_at) / Fold change /veh CCDC152 (11751479_a_at) / RFU FAM211A (11726209_a_at) / Fold change /veh FAM211A (11726209_a_at) / RFU RGS16 (11746705_a_at) / Fold change /veh RGS16 (11746705_a_at) / RFU VCAN (11755009_s_at) / Fold change /veh VCAN (11755009_s_at) / RFU RHOB (11743442_s_at) / Fold change /veh RHOB (11743442_s_at) / RFU RGS16 (11720943_a_at) / Fold change /veh RGS16 (11720943_a_at) / RFU RGS16 (11720944_at) / Fold change /veh RGS16 (11720944_at) / RFU, VPS4B / Fold change vs veh, VPS4B / RFU, CREB1 / Fold change vs veh, CREB1 / RFU, DNAJC13 / Fold change vs veh, DNAJC13 / RFU, GNAQ / Fold change vs veh, GNAQ / RFU, CDK5R1 / Fold change vs veh, CDK5R1 / RFU, ZRANB3 / Fold change vs veh, ZRANB3 / RFU, CUL4A / Fold change vs veh, CUL4A / RFU, CCNY / Fold change vs veh, CCNY / RFU, UFL1 / Fold change vs veh, UFL1 / RFU, COG3 / Fold change vs veh, COG3 / RFU, DIAPH2 / Fold change vs veh, DIAPH2 / RFU, SKA2 / Fold change vs veh, SKA2 / RFU, AFF3 / Fold change vs veh, AFF3 / RFU, LMF1 / Fold change vs veh, LMF1 / RFU, IPO11 / Fold change vs veh, IPO11 / RFU, DFFB / Fold change vs veh, DFFB / RFU, FOXP1 / Fold change vs veh, FOXP1 / RFU, CARD8 / Fold change vs veh, CARD8 / RFU, STRN3 / Fold change vs veh, STRN3 / RFU, ADK / Fold change vs veh, ADK / RFU, RASSF2 / Fold change vs veh, RASSF2 / RFU, WIPF1 / Fold change vs veh, WIPF1 / RFU, LARP1B / Fold change vs veh, LARP1B / RFU, RASA1 / Fold change vs veh, RASA1 / RFU, RB1 / Fold change vs veh, RB1 / RFU, PPFIA1 / Fold change vs veh, PPFIA1 / RFU, MAT2A / Fold change vs veh, MAT2A / RFU, CCT5 / Fold change vs veh, CCT5 / RFU, WDR92 / Fold change vs veh, WDR92 / RFU, CUX1 / Fold change vs veh, CUX1 / RFU, TTC7A / Fold change vs veh, TTC7A / RFU, TMEM135 / Fold change vs veh, TMEM135 / RFU, DEPTOR / Fold change vs veh, DEPTOR / RFU, CPM / Fold change vs veh, CPM / RFU, DNAJB6 / Fold change vs veh, DNAJB6 / RFU, CACNA2D3 / Fold change vs veh, CACNA2D3 / RFU, DTX4 / Fold change vs veh, DTX4 / RFU, TFCP2 / Fold change vs veh, TFCP2 / RFU, GMCL1 /// GMCL1P1 / Fold change vs veh, GMCL1 /// GMCL1P1 / RFU, AEBP2 / Fold change vs veh, AEBP2 / RFU, SNHG1 /// SNORD22 /// SNORD25 /// SNORD26 /// SNORD27 /// SNORD28 /// SNORD29 /// SNORD31 / Fold change vs veh, SNHG1 /// SNORD22 /// SNORD25 /// SNORD26 /// SNORD27 /// SNORD28 /// SNORD29 /// SNORD31 / Fold change (Aza/veh), C12orf56 (ProbeSet 11735607_a_at) / Fold change (ACY-1035/veh), C12orf56 (ProbeSet 11735607_a_at) / Fold change (Aza/veh), FGFR1OP (ProbeSet 11751329_s_at) / Fold change (ACY-1035/veh), FGFR1OP (ProbeSet 11751329_s_at) / Fold change (Aza/veh), VPS36 (ProbeSet 11739960_a_at) / Fold change (ACY-1035/veh), VPS36 (ProbeSet 11739960_a_at) / RFU SYPL1 (11715823_x_at) / Fold change /veh SYPL1 (11715823_x_at) / RFU IGFBP7 (11715501_s_at) / Fold change /veh IGFBP7 (11715501_s_at) / RFU REEP3 (11722064_at) / Fold change /veh REEP3 (11722064_at) / RFU IGLL1 (11728026_x_at) / Fold change /veh IGLL1 (11728026_x_at): dose or concentration left out as unconfirmed
# Conditions: MV-4-11 cells, 48 hours
smiles,measurement,value
Nc1ccc(-c2cccs2)cc1NC(=O)c1ccc2c(c1)cc(C1CC1)n2CCN1CCOCC1 [ACY-1035],RFU SNX32 (11753110_a_at),6.46 RFU

# From paper PMC5218480 (PLoS ONE, 2017)
